Results on one molecule are retold here after US20240025862A1, “SUBSTITUTED N-PHENYLURACILS AND SALTS THEREOF, AND USE THEREOF AS HERBICIDAL ACTIVE SUBSTANCES” (Bayer Aktiengesellschaft, priority 2020, published 2024).

Format in all cases: in vivo
Series [1] has as its system Triticum aestivum (TRZAS). The series can be described thus: Post-emergence crop plant compatibility, greenhouse pot test. Conditions: 1.25 g/ha, vs untreated controls. The method in brief:
(§1)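 Percent crop injury was judged by eye roughly three weeks after treatment, relative to untreated plants, where 100% meant death. Application was a post-emergence spray at the one-leaf stage, 600 l/ha water volume with 0.5% additive; letters a, b, c denote differing dose rates.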

The test system of series [2] is Brassica napus (BRSNW). Described as above. Conditions: 1.25 g/ha, vs untreated controls. The method in brief:
as §1

In series [3] the test system is Zea mays (ZEAMX). Described as above. As to conditions: 1.25 g/ha, vs untreated controls. The method in brief:
as §1

Series [4] deals with Glycine max (GLXMA). Described as above. The method in brief:
as §1

Series [5] relates to Veronica persica (VERPE). The series can be described thus: Post-emergence herbicidal action, greenhouse pot test. As to conditions: Veronica persica, 504 h, read-out: Post-emergence action against VERPE. The method in brief:
(§2)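 Greenhouse-grown weeds in sandy loam were sprayed post-emergence at the one-leaf stage, 2–3 weeks after sowing. Compounds were formulated as WP or EC in water with 0.5% additive at 600 l/ha, at rates of 20 g/ha or less. Visual rating after about 3 weeks used a scale from 0% (like untreated control) to 100% (plants dead).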

For series [6], the system named is Pharbitis purpurea (PHBPU). The description is as above. As to conditions: Ipomoea purpurea, 504 h, read-out: Post-emergence action against PHBPU in %. The method in brief: as §2
The test system of series [7] is Lolium rigidum (LOLRI). The series is described as above. Conditions: Lolium rigidum, 504 h, dosage 20 g/ha, read-out: Post-emergence action against LOLRI in %. The method in brief: as §2
Series [8] has as its system Avena fatua (AVEFA). Described as above. As to conditions: Avena fatua, 504 h, 20 g/ha, rated visually after about 3 weeks vs untreated controls, 100% = plants have died, read-out: Post-emergence action at 20 g/ha against AVEFA in %. The method in brief:
as §2

Series [9] has as its system Polygonum convolvulus (POLCO). The description is as above. As to conditions: Fallopia convolvulus, 504 h, read-out: Post-emergence action against POLCO in %. The method in brief: as §2
Series [10] concerns Abutilon theophrasti (ABUTH). Described as above. As to conditions: Abutilon theophrasti, 504 h, rated visually after about 3 weeks vs untreated controls, 100% = plants have died. The method in brief: as §2
The subject of series [11] is Viola tricolor (VIOTR). The description is as above. Conditions: Viola tricolor, 504 h, read-out: Post-emergence action against VIOTR. The method in brief:
as §2

As to `COCCOC(=O)COc1ccccc1Oc1cc(-n2c(=O)cc(C(F)(F)F)n(C)c2=O)c(F)cc1Cl` [I.7-1, 2-Methoxyethyl (2-{2-chloro-4-fluoro-5-[3-methyl-2,6-dioxo-4-(trifluoromethyl)-3,6-dihydropyrimidin-1(2H)-yl]phenoxy}phenoxy)acetate], the “Post-emergence action against TRZAS (crop plant compatibility)” value in series [1] is 20%. Also, the “Post-emergence action against BRSNW (crop plant compatibility)” value in [2] came to 20%. In addition, the “Post-emergence action against ZEAMX (crop plant compatibility)” value in series [3] came to 20%. Also, the “Post-emergence action against GLXMA in %” value in series [4] (1.25 g/ha), in series [4] (5 g/ha) and in series [4] (20 g/ha) was 10% throughout. Besides, the pest or weed control at 1.25 g/ha in [5] (1.25 g/ha), in series [6] (dosage 1.25 g/ha) and in [11] (1.25 g/ha) was 100% in each case. The pest or weed control at 5 g/ha worked out at 100% in [5] (5 g/ha); 100% in series [6] (dosage 5 g/ha); 80% in [9] (dosage 5 g/ha); 100% in series [10] (5 g/ha, read-out: Post-emergence action at 5 g/ha against ABUTH in %); 100% in [11] (5 g/ha). For the same molecule, the pest or weed control at 20 g/ha is 100% in [5] (20 g/ha); 100% in series [6] (dosage 20 g/ha); 80% in [7]; 80% in series [8]; 100% in series [9] (dosage 20 g/ha); 100% in [10] (20 g/ha, read-out: Post-emergence action at 20 g/ha against ABUTH in %). The pest or weed control at 20 g/ha in [11] (20 g/ha) stood at 100%.
